Reference: patent publication US20160002204A1 (Board of Regents, The University of Texas System, priority 2014, published 2016)

How the values were obtained:
[1] = target: T1, GLS1 (purified recombinant human GAC) (Homo sapiens, UniProt O94925); test: GLS1 enzymatic activity assay (dual-coupled, Amplex UltraRed/resorufin); assay type: biochemical
T1 sequence (O94925 55-598 isoform O94925-3 limits assumed): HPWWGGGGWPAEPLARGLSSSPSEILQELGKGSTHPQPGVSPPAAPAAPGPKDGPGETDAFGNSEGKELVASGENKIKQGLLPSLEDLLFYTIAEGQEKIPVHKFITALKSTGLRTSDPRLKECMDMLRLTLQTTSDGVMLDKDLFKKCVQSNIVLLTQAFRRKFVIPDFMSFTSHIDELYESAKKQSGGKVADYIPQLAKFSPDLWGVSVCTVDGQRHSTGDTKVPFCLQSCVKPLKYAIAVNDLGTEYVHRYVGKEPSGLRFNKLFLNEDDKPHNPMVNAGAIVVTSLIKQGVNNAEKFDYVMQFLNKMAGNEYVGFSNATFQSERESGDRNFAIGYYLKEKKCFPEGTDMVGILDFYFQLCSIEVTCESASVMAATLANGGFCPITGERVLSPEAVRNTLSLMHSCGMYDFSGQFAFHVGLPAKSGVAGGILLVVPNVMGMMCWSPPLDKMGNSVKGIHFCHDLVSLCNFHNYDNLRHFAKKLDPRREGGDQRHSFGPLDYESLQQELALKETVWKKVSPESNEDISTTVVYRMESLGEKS
Outline: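 In this coupled fluorometric format, phosphate-activated GAC (2 nM, 50 mM phosphate) is pre-exposed to compound for 10 min before 1 mM glutamine addition. Product is tracked as resorufin (530/590 nm) over time or at 20 min, and potency is derived by logistic fitting.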

A549 cells = test: A549 proliferation (viability) assay, Cell Titer Fluor, 72 hours; assay type: cell-based; conditions: Homo sapiens
Outline: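 Fluorescence read-out (Cell Titer Fluor, 30 min at 37 °C after reagent) after 72 h compound exposure of A549 cells; EC50 by four-parameter logistic curve fit. Cells: 1000/well, RPMI 1640 + 10% dialyzed FBS, 0.5% DMSO final.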

| SMILES | IC50 [1] | EC50 (A549 cells) |
| --- | --- | --- |
| O=C(Cc1nccs1)Nc1ccn(CCC(F)Cn2cc(C(=O)NCc3cccc(OC(F)(F)F)c3)nn2)c(=O)c1 (stereo not shown) [Example 252, 1-(2-fluoro-4-{2-oxo-4-[2-(1,3-thiazol-2-yl)acetamido]-1,2-dihydropyridin-1-yl}butyl)-N-{[3-(trifluoromethoxy)phenyl]methyl}-1H-1,2,3-triazole-4-carboxamide] | < 100 nM | 100 to 500 nM |
| O=C(Cc1ccc2ccccc2n1)Nc1ccn(CCC(F)Cn2cc(C(=O)NCc3cccc(OC(F)(F)F)c3)nn2)c(=O)c1 (stereo not shown) [Example 253, 1-(2-fluoro-4-{2-oxo-4-[2-(quinolin-2-yl)acetamido]-1,2-dihydropyridin-1-yl}butyl)-N-{[3-(trifluoromethoxy)phenyl]methyl}-1H-1,2,3-triazole-4-carboxamide] | < 100 nM | 500 to 5000 nM |
| CCOC(=O)N1CCN(CC(=O)Nc2ccn(CCC(F)Cn3cc(C(=O)NCc4cccc(OC(F)(F)F)c4)nn3)c(=O)c2)CC1 (stereo not shown) [Example 255, ethyl 4-{[(1-{3-fluoro-4-[4-({[3-(trifluoromethoxy)phenyl]methyl}carbamoyl)-1H-1,2,3-triazol-1-yl]butyl}-2-oxo-1,2-dihydropyridin-4-yl)carbamoyl]methyl}piperazine-1-carboxylate] | < 100 nM | < 100 nM |
| N#CC1CCN(CC(=O)Nc2ccn(CCC(F)Cn3cc(C(=O)NCc4cccc(OC(F)(F)F)c4)nn3)c(=O)c2)CC1 (stereo not shown) [Example 256, 1-(4-{4-[2-(4-cyanopiperidin-1-yl)acetamido]-2-oxo-1,2-dihydropyridin-1-yl}-2-fluorobutyl)-N-{[3-(trifluoromethoxy)phenyl]methyl}-1H-1,2,3-triazole-4-carboxamide] | < 100 nM | 500 to 5000 nM |
| O=C(CN1CCCC(CO)C1)Nc1ccn(CCC(F)Cn2cc(C(=O)NCc3cccc(OC(F)(F)F)c3)nn2)c(=O)c1 (stereo not shown) [Example 257, 1-[2-fluoro-4-(4-{2-[3-(hydroxymethyl)piperidin-1-yl]acetamido}-2-oxo-1,2-dihydropyridin-1-yl)butyl]-N-{[3-(trifluoromethoxy)phenyl]methyl}-1H-1,2,3-triazole-4-carboxamide] | < 100 nM | 500 to 5000 nM |
| O=C(CC1CCCCC1)Nc1ccn(CCC(F)Cn2cc(C(=O)NCc3cc(C(F)(F)F)ccn3)nn2)c(=O)c1F (stereo not shown) [Example 258, 1-{4-[4-(2-cyclohexylacetamido)-3-fluoro-2-oxo-1,2-dihydropyridin-1-yl]-2-fluorobutyl}-N-{[4-(trifluoromethyl)pyridin-2-yl]methyl}-1H-1,2,3-triazole-4-carboxamide] | < 100 nM | < 100 nM |
| O=C(CC1CCCCC1)Nc1ccn(CCC(F)Cn2cc(C(=O)NCc3cncc(C(F)(F)F)c3)nn2)c(=O)c1F (stereo not shown) [Example 259, 1-{4-[4-(2-cyclohexylacetamido)-3-fluoro-2-oxo-1,2-dihydropyridin-1-yl]-2-fluorobutyl}-N-{[5-(trifluoromethyl)pyridin-3-yl]methyl}-1H-1,2,3-triazole-4-carboxamide] | < 100 nM | < 100 nM |

Second part, the compound after the results:

| IC50 [1] | EC50 (A549 cells) | SMILES |
| --- | --- | --- |
| < 100 nM | < 100 nM | O=C(CC1CCCCC1)Nc1ccn(CCC(F)Cn2cc(C(=O)NCc3ccc(C(F)(F)F)nc3)nn2)c(=O)c1F (stereo not shown) [Example 260, 1-{4-[4-(2-cyclohexylacetamido)-3-fluoro-2-oxo-1,2-dihydropyridin-1-yl]-2-fluorobutyl}-N-{[6-(trifluoromethyl)pyridin-3-yl]methyl}-1H-1,2,3-triazole-4-carboxamide] |
| < 100 nM | < 100 nM | O=C(CC1CCCCC1)Nc1ccn(CCC(F)Cn2cc(C(=O)NCc3ccc(C(F)(F)F)cn3)nn2)c(=O)c1F (stereo not shown) [Example 261, 1-{4-[4-(2-cyclohexylacetamido)-3-fluoro-2-oxo-1,2-dihydropyridin-1-yl]-2-fluorobutyl}-N-{[5-(trifluoromethyl)pyridin-2-yl]methyl}-1H-1,2,3-triazole-4-carboxamide] |
| < 100 nM | < 100 nM | O=C(CC1CCCCC1)Nc1ccn(CCC(F)Cn2cc(C(=O)NCc3cccc(C(F)(F)F)n3)nn2)c(=O)c1F (stereo not shown) [Example 262, 1-{4-[4-(2-cyclohexylacetamido)-3-fluoro-2-oxo-1,2-dihydropyridin-1-yl]-2-fluorobutyl}-N-{[6-(trifluoromethyl)pyridin-2-yl]methyl}-1H-1,2,3-triazole-4-carboxamide] |
| < 100 nM | 100 to 500 nM | O=C(Cc1ccccc1)Nc1cnn(CCC(F)Cn2cc(C(=O)NCc3cccc(OC(F)(F)F)c3)nn2)c(=O)c1 (stereo not shown) [Example 263, 1-{2-fluoro-4-[6-oxo-4-(2-phenylacetamido)-1,6-dihydropyridazin-1-yl]butyl}-N-{[3-(trifluoromethoxy)phenyl]methyl}-1H-1,2,3-triazole-4-carboxamide] |
| < 100 nM | < 100 nM | O=C(CC1CCCCC1)Nc1ccn(CCC(F)Cn2cc(C(=O)NCc3cccc(C(F)(F)F)c3)nn2)c(=O)c1F (stereo not shown) [Example 264, 1-{4-[4-(2-cyclohexylacetamido)-3-fluoro-2-oxo-1,2-dihydropyridin-1-yl]-2-fluorobutyl}-N-{[3-(trifluoromethyl)phenyl]methyl}-1H-1,2,3-triazole-4-carboxamide] |
| < 100 nM | < 100 nM | O=C(CC1CCCCC1)Nc1ccn(CCC(F)Cn2cc(C(=O)NCc3cc(Cl)ccc3F)nn2)c(=O)c1F (stereo not shown) [Example 265, N-[(5-chloro-2-fluorophenyl)methyl]-1-{4-[4-(2-cyclohexylacetamido)-3-fluoro-2-oxo-1,2-dihydropyridin-1-yl]-2-fluorobutyl}-1H-1,2,3-triazole-4-carboxamide] |
| < 100 nM | < 100 nM | Cc1ccc(CNC(=O)c2cn(CC(F)CCn3ccc(NC(=O)CC4CCCCC4)c(F)c3=O)nn2)cn1 (stereo not shown) [Example 266, 1-{4-[4-(2-cyclohexylacetamido)-3-fluoro-2-oxo-1,2-dihydropyridin-1-yl]-2-fluorobutyl}-N-[(6-methylpyridin-3-yl)methyl]-1H-1,2,3-triazole-4-carboxamide] |
| < 100 nM | < 100 nM | O=C(CC1CCCCC1)Nc1ccn(CCC(F)Cn2cc(C(=O)NCc3ccccn3)nn2)c(=O)c1F (stereo not shown) [Example 267, 1-{4-[4-(2-cyclohexylacetamido)-3-fluoro-2-oxo-1,2-dihydropyridin-1-yl]-2-fluorobutyl}-N-(pyridin-2-ylmethyl)-1H-1,2,3-triazole-4-carboxamide] |
| < 100 nM | 100 to 500 nM | CC(C)(O)c1ccc(CNC(=O)c2cn(CC(F)CCn3ccc(NC(=O)CC4CCCCC4)c(F)c3=O)nn2)cn1 (stereo not shown) [Example 268, 1-{4-[4-(2-cyclohexylacetamido)-3-fluoro-2-oxo-1,2-dihydropyridin-1-yl]-2-fluorobutyl}-N-{[6-(2-hydroxypropan-2-yl)pyridin-3-yl]methyl}-1H-1,2,3-triazole-4-carboxamide] |
| < 100 nM | < 100 nM | O=C(CN1CCCCC1)Nc1ccn(CCC(F)Cn2cc(C(=O)NCc3cccc(OC(F)(F)F)c3)nn2)c(=O)c1 (stereo not shown) [Example 269, 1-(2-fluoro-4-{2-oxo-4-[2-(piperidin-1-yl)acetamido]-1,2-dihydropyridin-1-yl}butyl)-N-{[3-(trifluoromethoxy)phenyl]methyl}-1H-1,2,3-triazole-4-carboxamide] |
